The record followed here is US20060193895A1, “Additive for food and beverage, pharmaceutical composition, GLUT4 translocator, and method for translocating GLUT4” (Use-Techno Corporation, priority 2005, published 2006).

Type in all cases: in vivo
The subject of assay [1] is KK-Ay mice. Put plainly: Serum insulin value in KK-Ay mouse with administration of corosolic acid. The settings on record: after 4 hours from the administration, vs group without corosolic acid. How it is done:
On the KK-Ay mouse groups with or without corosolic acid administrated in “Blood sugar level in KK-Ay mouse by administration of corosolic acid” described above, the serum insulin values were measured after 4 hours from the administration. The serum insulin values were measured by the enzyme 2-antibody method. The measured data were rated by the Student's t-test to determine whether or not they had significant differences according to the same criterion as above.

The test system of assay [2] is ddY mice. As to the kind of experiment: Blood sugar level of ddY mouse by administration of corosolic acid. The following applies: ddY normal mice, oral administration, 2, 4, and 7 hours after the administration. The procedure: KK-Ay mice (CLEA JAPAN, INC.) which are the model animals for Type II diabetes were employed for test animals. These KK-Ay mice aged 6 to 10 weeks, having 300 mg/dL of blood sugar level. Corosolic acid which was extracted from Banaba leaves and purified was forcefully administrated to these KK-Ay mice using an injection syringe and an oral sound for mouse. Blood samples were collected at 2, 4 and 7 hours after the administration using the orbital vein blood sampling method, and the blood sugar levels were determined by the glucose oxidase method. Blood sugar levels were measured on four KK-Ay mice. The measured values were used to calculate an average, which was evaluated by the Student's t-test. […] FIG. 1 describes the blood sugar level data as average value± standard error. The p-value of 0.05 or below in the Student's t-test was rated to be significant (the significance is shown with * mark in the Figure: the same is applied hereinafter). Blood sugar level was determined by the same procedure as described in the above “Blood sugar level in KK-Ay mouse by administration of corosolic acid”, except that the ddY mice which are the normal mice (Japan SLC, Inc.) were employed instead of the KK-Ay mice which are the model animals for Type II diabetes.

For assay [3], the system named is KK-Ay mice. Put plainly: Blood sugar level in KK-Ay mouse with administration of corosolic acid. The settings on record: oral administration. The procedure: KK-Ay mice (CLEA JAPAN, INC.) which are the model animals for Type II diabetes were employed for test animals. These KK-Ay mice aged 6 to 10 weeks, having 300 mg/dL of blood sugar level. Corosolic acid which was extracted from Banaba leaves and purified was forcefully administrated to these KK-Ay mice using an injection syringe and an oral sound for mouse. Blood samples were collected at 2, 4 and 7 hours after the administration using the orbital vein blood sampling method, and the blood sugar levels were determined by the glucose oxidase method. Blood sugar levels were measured on four KK-Ay mice. The measured values were used to calculate an average, which was evaluated by the Student's t-test. […] FIG. 1 describes the blood sugar level data as average value± standard error. The p-value of 0.05 or below in the Student's t-test was rated to be significant (the significance is shown with * mark in the Figure: the same is applied hereinafter).

For assay [4], the system named is glucose transporter type 4 (GLUT4). As to the kind of experiment: Effect of corosolic acid on GLUT4 in mouse skeletal muscle (western blotting of PM and LDM fractions). The following applies: KK-Ay mice, after 4 hours from the administration. How it is done: The intake of sugar into cells is conducted by a carrier protein in the transporting system on cell membrane, called glucose transporter (GLUT). Muscle has glucose transporter type 1 (GLUT1) and glucose transporter type 4 (GLUT4). […] This change in location within a cell is called GLUT4 translocation. It is speculated that significant increase of glucose in muscle and fat tissues is mainly due to the translocation of GLUT4. In view of this point, the effect of corosolic acid on GLUT4 was studied. First, the low density microsome (LDM) fraction and the plasma membrane (PM) fraction were prepared using the sucrose concentration gradient in accordance with the method of Klip et al. (FEBS Lett., 224, 224-230 (1987), Biochem. Biophys. Res. Commum., 172, 728-736 (1990)). On the KK-Ay mouse groups with or without corosolic acid administrated, the relative quantities of GLUT4 in the PM fraction and the LDM fraction were determined after 4 hours from the administration using the western blotting analysis.

For `C[C@H]1[C@H](C)CC[C@]2(C(=O)O)CC[C@]3(C)C(=CC[C@@H]4[C@@]5(C)C[C@@H](O)[C@H](O)C(C)(C)[C@@H]5CC[C@]43C)[C@H]12` [corosolic acid], the serum insulin value result in assay [1] is recorded as “no significant difference”. Further, the “change in blood sugar level” value in assay [2] was “No significant difference”. In addition, the blood sugar level result in assay [3] (after 4 hours from the administration) was “about 280 mg/dL”. Also, the “change in blood sugar level” value in assay [3] (during 4 hours after the administration, vs control, Student's t-test) is recorded as “significantly decreases”. In assay [4], the “relative quantity of GLUT4 in the LDM fraction” value was “decreased the GLUT4 of low density microsome” and the “relative quantity of GLUT4 in the PM fraction” value is “increased it in the plasma membrane fraction”.
